Results taken from ChEMBL document CHEMBL1201862, “PubChem BioAssay data set” (2004).
The source made the active and inactive calls. Rule as the data show it, for most assays here: actives have a measured EC50 and inactives only a lower limit.

Experiments:
[1] = NIH-3T3 fibroblast cytotoxicity, dose response, cytotoxicity control, cell-based, fluorescence, Alamar Blue, secondary assay (AID 2327); format: functional;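 also: NIH-3T3 mouse fibroblasts cultured with fluconazole at 8 µg/mL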
[2] = C. albicans growth with fluconazole, confirmation, fluorescence, retest (AID 2467); format: functional, cell-based
[3] = biological target: T1, Calpain-2 catalytic subunit (Sus scrofa, UniProt P43367); experiment: pig calpain II inhibitor potency, dose response, biochemical, fluorogenic peptide substrate (AID 1420); format: functional
T1 sequence (P43367 whole entry): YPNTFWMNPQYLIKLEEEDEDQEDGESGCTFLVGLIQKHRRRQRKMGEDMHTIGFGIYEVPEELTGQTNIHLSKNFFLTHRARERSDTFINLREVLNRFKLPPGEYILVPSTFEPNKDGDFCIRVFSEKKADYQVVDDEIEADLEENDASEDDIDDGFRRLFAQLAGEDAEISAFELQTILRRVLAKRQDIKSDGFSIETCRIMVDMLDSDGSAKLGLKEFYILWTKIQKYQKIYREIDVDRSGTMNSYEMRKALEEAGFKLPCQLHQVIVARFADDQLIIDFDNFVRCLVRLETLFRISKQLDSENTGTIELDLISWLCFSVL

[4] = biological target: Luciferin 4-monooxygenase (Photinus pyralis, UniProt P08659); experiment: firefly luciferase enzyme inhibitors, dose response, biochemical, luminescence (AID 1891)
Sequence of Luciferin 4-monooxygenase (P08659 whole entry): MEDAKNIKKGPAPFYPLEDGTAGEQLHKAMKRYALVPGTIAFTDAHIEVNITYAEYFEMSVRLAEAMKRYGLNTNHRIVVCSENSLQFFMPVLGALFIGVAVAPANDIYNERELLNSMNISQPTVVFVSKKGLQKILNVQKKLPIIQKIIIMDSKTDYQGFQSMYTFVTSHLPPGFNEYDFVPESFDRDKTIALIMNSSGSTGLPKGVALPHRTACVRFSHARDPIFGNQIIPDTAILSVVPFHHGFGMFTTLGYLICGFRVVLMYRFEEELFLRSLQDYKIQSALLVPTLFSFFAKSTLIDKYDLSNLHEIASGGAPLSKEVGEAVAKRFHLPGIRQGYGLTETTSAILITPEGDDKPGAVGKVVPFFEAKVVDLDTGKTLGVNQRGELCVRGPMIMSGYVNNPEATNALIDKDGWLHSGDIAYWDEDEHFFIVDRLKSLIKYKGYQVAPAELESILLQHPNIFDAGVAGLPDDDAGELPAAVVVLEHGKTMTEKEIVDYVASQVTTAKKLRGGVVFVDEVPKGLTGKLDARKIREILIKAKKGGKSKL

[5] = Luminescence Cell-Based Dose Confirmation HTS to Identify Inhibitors of Platelet Dense Granule Release. [Related pubchem assays: 1663 (Primary HTS), 1678 (Summary of Project)]; format: functional
[6] = biological target: T2, Heat shock factor protein 1 (Mus musculus, UniProt P38532); experiment: inhibition of MG132-induced HSE-luciferase signal, confirmation, cell-based, NIH3T3, luminescence, dose retest (AID 2382); format: functional;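 also: NIH3T3 fibroblasts with HSF1-driven luciferase reporter stressed by proteasome inhibitor MG132; luminescence from HSF1-driven luciferase expression after 8 hours of MG132 stress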
T2 sequence (P38532 whole entry): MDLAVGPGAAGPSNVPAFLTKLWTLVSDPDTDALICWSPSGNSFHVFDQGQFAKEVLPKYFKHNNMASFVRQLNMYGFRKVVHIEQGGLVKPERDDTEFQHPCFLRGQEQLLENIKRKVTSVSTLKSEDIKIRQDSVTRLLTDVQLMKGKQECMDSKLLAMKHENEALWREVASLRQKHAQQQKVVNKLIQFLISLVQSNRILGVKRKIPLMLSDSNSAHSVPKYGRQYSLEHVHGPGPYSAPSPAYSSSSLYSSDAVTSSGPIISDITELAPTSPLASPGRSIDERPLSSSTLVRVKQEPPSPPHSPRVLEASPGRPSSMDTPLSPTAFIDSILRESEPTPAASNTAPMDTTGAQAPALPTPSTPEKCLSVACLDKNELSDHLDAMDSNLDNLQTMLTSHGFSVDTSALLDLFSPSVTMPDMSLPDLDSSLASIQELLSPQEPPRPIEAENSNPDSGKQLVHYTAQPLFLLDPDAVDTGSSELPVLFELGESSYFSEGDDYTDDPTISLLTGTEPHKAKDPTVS

[7] = tested on: Streptococcus; experiment: Group A Streptococcus viability loss, dose response, counter-screen for streptokinase expression inhibitor project, luminescence, BacTiterGlo (AID 1915); format: functional, organism-based;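 also: potency for reduction of bacterial viability or growth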
[8] = tested on: Streptococcus sp. 'group A'; experiment: growth inhibition of control SK(-) GAS strain, dose response, counter-screen for streptokinase expression inhibitor project, luminescence, kanamycin, BacTiterGlo, confirmation (AID 1900); format: functional, organism-based
[9] = biological target: T3, Protein RecA (Mycobacterium tuberculosis, UniProt P9WHJ3); experiment: Fluorescence Cell-Free Homogeneous Dose Retest to Identify Inhibitors of RecA-Intein Splicing Activity. [Related pubchem assays (depositor defined):AID2097, AID2223, AID489010, AID492950]; format: functional
T3 sequence (P9WHJ3 whole entry): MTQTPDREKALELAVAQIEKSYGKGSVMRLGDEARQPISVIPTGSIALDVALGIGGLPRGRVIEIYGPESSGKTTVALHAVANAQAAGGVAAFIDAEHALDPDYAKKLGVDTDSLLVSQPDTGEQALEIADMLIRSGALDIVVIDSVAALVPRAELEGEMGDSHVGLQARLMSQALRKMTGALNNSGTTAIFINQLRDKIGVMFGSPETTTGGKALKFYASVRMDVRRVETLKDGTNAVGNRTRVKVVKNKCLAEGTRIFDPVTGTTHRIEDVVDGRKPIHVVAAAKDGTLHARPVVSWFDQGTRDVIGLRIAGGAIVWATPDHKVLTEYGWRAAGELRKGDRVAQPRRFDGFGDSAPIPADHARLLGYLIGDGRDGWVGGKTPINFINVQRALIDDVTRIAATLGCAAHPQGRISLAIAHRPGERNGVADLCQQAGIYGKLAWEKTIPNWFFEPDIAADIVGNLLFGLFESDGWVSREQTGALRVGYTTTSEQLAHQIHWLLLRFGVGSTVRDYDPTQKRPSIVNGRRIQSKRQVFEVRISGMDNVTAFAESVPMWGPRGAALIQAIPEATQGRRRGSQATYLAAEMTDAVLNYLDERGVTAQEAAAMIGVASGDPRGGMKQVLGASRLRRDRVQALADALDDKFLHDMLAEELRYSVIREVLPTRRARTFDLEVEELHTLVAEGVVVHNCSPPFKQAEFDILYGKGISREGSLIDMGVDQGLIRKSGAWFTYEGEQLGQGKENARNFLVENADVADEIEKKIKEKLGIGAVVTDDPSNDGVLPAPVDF

[10] = biological target: T4, Replicative DNA helicase DnaB (Mycobacterium tuberculosis, UniProt P9WMR3); experiment: DnaB intein splicing inhibitors, dose response, biochemical, cell-free fluorescence (AID 449749); format: functional
T4 sequence (P9WMR3 whole entry): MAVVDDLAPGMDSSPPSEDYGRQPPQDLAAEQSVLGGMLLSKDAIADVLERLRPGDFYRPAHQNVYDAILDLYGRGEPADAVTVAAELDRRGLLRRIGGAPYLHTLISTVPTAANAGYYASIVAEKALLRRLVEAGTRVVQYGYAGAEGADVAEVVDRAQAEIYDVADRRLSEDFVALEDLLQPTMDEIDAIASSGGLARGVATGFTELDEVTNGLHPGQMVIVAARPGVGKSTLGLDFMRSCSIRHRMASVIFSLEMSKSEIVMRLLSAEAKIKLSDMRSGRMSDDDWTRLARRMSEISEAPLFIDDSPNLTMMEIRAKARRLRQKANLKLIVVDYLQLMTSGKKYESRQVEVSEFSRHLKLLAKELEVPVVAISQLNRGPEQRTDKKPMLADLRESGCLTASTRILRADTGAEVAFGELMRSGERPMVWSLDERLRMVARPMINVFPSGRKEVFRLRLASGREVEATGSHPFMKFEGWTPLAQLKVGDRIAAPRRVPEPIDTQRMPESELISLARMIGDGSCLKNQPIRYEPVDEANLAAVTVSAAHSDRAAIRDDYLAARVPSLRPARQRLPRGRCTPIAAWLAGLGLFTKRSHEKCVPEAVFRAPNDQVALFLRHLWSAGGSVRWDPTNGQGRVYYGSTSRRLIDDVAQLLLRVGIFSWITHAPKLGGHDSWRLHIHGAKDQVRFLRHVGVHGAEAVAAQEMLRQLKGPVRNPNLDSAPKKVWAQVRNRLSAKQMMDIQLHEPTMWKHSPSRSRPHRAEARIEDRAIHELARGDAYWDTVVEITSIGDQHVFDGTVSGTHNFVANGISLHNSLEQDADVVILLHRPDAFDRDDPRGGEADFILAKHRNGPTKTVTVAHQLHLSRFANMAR

[11] = tested on: INS1; experiment: beta cell apoptosis inhibitors, cytokine rescue, dose response, luminescence, retest (AID 449756); format: functional, cell-based; conditions: Rattus norvegicus;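 also: cell death triggered by IL-1 beta plus TNF-alpha plus IFN-gamma mixture; protective hits raise ATP signal compared with cytokine alone wells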
[12] = cytotoxicity toward DRD oncogenic fibroblasts, dose response, cell-based, non-viral oncogenic, luminescence (AID 1934); format: functional; conditions: Homo sapiens
[13] = tested on: BJ; experiment: cytotoxicity toward BJ-TERT-LT-ST fibroblasts, dose response, cell-based, RAS-independent, luminescence (AID 1935); format: functional; conditions: Homo sapiens;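 also: BJ fibroblasts immortalized with TERT plus LT and ST oncogenes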
[14] = tested on: BJ; experiment: cytotoxicity toward BJ-TERT fibroblasts, dose response, cell-based, RAS-independent, luminescence (AID 1933); format: functional; conditions: Homo sapiens
[15] = tested on: BJ; experiment: cells; format: functional, cell-based; conditions: Homo sapiens
[16] = biological target: T5, Streptokinase A (Streptococcus pyogenes serotype M1, UniProt P10520); experiment: S. pyogenes streptokinase expression inhibitors, potency, dose response, plasminogen activation absorbance, OD405 (AID 1914); format: functional, Streptococcus pyogenes M1 GAS;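 also: secreted streptokinase activity via plasminogen activation per viability signal from cell pellet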
T5 sequence (P10520 whole entry): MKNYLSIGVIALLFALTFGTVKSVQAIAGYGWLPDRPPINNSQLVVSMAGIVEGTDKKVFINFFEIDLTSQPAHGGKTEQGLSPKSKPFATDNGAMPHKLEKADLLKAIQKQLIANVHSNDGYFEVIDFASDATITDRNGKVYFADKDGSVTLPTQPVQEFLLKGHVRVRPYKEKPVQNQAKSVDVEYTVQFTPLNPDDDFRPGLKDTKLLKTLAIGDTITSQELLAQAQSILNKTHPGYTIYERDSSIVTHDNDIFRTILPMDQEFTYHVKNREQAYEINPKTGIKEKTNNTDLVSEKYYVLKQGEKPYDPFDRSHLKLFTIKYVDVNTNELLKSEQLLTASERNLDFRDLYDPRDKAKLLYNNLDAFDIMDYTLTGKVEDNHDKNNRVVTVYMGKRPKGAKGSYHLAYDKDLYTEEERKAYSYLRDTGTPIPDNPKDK

[17] = Luminescence Cell-Based Dose Response HTS to Identify Activators of Luciferase Translation or Activity in H4 […] Cells. [Related pubchem assays: 1829 (Project Summary), 1814 (Primary HTS)]; format: functional
[18] = tested on: H4; experiment: Luminescence Cell-Based Dose Response HTS to Identify Activators of 5'UTR Stem-Loop Driven Prion Protein mRNA Translation in H4 Neuroglioblastoma Cells. [Related pubchem assays: 1829 (Project Summary), 1814 (Primary HTS)]; format: functional; conditions: Homo sapiens

O=C(O)c1ccc(CN2C(=O)CSC2=S)cc1
EC50 [1]: > 150 µM (inactive)
EC50 [2]: 0.153 µM (active)

OCCCNc1nc(-c2ccc(Cl)cc2)nnc1-c1ccc(Br)cc1
IC50 [3]: 3.09 µM (not active)

O=C(N/N=C/c1ccc(Cl)c([N+](=O)[O-])c1)C1CC1
IC50 [3]: 34.8 µM (not active)

COC(=O)c1sccc1NC(=O)Nc1ccc(OC)c(OC)c1
EC50 [4]: 2.36 µM (active)
EC50 [5]: 9.25 µM (active)

CCCCNC(=O)c1ccc(N2CCC3(CC2)OCCO3)c([N+](=O)[O-])c1
EC50 [4]: > 112 µM (not active)
EC50 [5]: > 112 µM (not active)

O=C(O)c1cccc(N/N=C/C2=C(Cl)c3cc(Cl)ccc3SC2)c1
EC50 [6]: > 195 µM (not active)
EC50 [7]: 6.65 µM (active)
EC50 [8]: 2.48 µM (active)
IC50 [3]: 2.38 µM (not active)

O=C1CCN(N=Nc2cccc(Cl)c2)N1
EC50 [4]: > 112 µM (not active)
EC50 [5]: > 112 µM (not active)
EC50 [9]: 15.4 µM (active)
AC50 [10]: 40.7 µM (active)

COc1cc(NC(=O)c2ccccc2NS(=O)(=O)c2ccc(Cl)s2)cc(OC)c1
EC50 [1]: 14.5 µM (active)
AC50 [11]: 5.95 µM (active)
EC50 [2]: 4.13 µM (active)

COC(=O)c1sc(NC(=O)c2ccoc2C)nc1C
EC50 [4]: 2.44 µM (active)
EC50 [5]: 5.71 µM (active)

Cc1cc(Nc2cccc(Cl)c2Cl)n2ncnc2n1
EC50 [1]: > 150 µM (inactive)
EC50 [2]: 0.769 µM (active)

CCOC(=O)c1sc(N(Cc2ccccc2)C(=O)CCl)nc1C
EC50 [12]: 4.97 µM (inconclusive)
EC50 [13]: 8.8 µM (active)
EC50 [14]: 1.77 µM (active)
EC50 [9]: 0.79 µM (active)
AC50 [10]: 2.6 µM (active)
EC50 [15]: 11.9 µM (active)

O=C(c1cc(-c2ccccc2)[nH]n1)N1CCc2c([nH]c3ccccc23)C1c1ccccn1 (stereo not drawn)
EC50 [1]: > 160 µM (inactive)
EC50 [7]: 20.4 µM (active)
EC50 [8]: 10.3 µM (active)
EC50 [2]: 0.718 µM (active)

COc1cccc(N/C=C/C(=O)c2ccc(OC)c(OC)c2)c1
EC50 [4]: 14.2 µM (active)
EC50 [5]: 22.8 µM (active)

CC(C)OC(=O)c1cn(-c2ccccc2)nc1-c1ccc2c(c1)OCCO2
IC50 [3]: 39.3 µM (not active)

Cc1c(OC(C)C(=O)NCc2ccccn2)ccc2c3c(c(=O)oc12)CCCC3 (stereo not drawn)
EC50 [4]: > 112 µM (not active)
EC50 [5]: > 112 µM (not active)

CC(=O)N(C)c1ccc(NC(=O)Nc2ccc(C)cc2)cc1
IC50 [3]: 0.673 µM (not active)

O=[N+]([O-])/C=C/c1c(OCc2ccccc2)ccc2ccccc12
EC50 [12]: 3.7 µM (active)
EC50 [13]: 3.63 µM (inconclusive)
EC50 [14]: 2.3 µM (inconclusive)
EC50 [7]: 4.18 µM (active)
EC50 [16]: 1.2 µM (active)
EC50 [8]: 1.49 µM (active)
EC50 [15]: 90.6 µM (inconclusive)

O=[N+]([O-])c1cccc(N/N=C/c2ccc(N3CCOCC3)cc2)c1
EC50 [17]: 46.8 µM (active)
EC50 [18]: 13.1 µM (active)

Cc1ccc(C(=O)NC(=O)OCCn2c(C)cnc2[N+](=O)[O-])cc1
EC50 [1]: > 160 µM (inconclusive)
EC50 [2]: > 38 µM (not active)

COc1ccc(NC(=S)N2CCN(CCN3C(=O)c4cccc5cccc(c45)C3=O)CC2)cc1
IC50 [3]: 24.2 µM (not active)

CCOC(=O)c1cc(-c2ccccc2)sc1NC(=O)C(C)OC(=O)c1cccnc1OCC (stereo not drawn)
EC50 [4]: > 112 µM (not active)
EC50 [5]: > 112 µM (not active)
